Measured values taken from US9254269B2, “Method of managing hypercortisolemia, headache disorders, neuropathic pain and related disorders” (Indus Biotech Private Limited, priority 2011, dated 2016).

Key:
[1] = system: Nitroglycerine induced hyperalgesia in rats; assay: Tail flick response latency in nitroglycerine induced hyperalgesia, oral treatment; test composition 41% asiaticoside and 36% madecassoside; format: in vivo, Wistar rats; conditions: 20 mg/kg p.o.
5-HT1A receptor = biological target: T1, 5-HT1A receptor (Mus musculus, UniProt Q64264); assay: Forced swim test, alone and after 5-HT1A receptor antagonist NAN-190; format: in vivo, Swiss albino mice; conditions: NAN-190 1 mg/kg p.o. alone
T1 construct: Male Swiss albino mice weighing 25-30 g were treated with antagonist of 5-HT1A receptor (NAN-190); from tissue; host or cells: whole living animal (male Swiss albino mice)
T1 sequence (Q64264 1-421): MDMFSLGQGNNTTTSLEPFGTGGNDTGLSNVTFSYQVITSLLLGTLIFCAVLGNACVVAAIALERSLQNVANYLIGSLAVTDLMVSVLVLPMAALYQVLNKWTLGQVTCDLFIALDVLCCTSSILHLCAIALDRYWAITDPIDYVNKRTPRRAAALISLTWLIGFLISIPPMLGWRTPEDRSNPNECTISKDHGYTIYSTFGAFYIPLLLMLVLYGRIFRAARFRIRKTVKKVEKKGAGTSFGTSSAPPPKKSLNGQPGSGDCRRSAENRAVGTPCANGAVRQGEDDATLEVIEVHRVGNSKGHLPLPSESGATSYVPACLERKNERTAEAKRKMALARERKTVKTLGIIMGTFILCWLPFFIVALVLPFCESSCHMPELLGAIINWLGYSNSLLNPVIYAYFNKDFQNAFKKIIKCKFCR
Method: The activity of the test composition was evaluated by first blocking the 5-HT1A receptor with an antagonist followed by treatment with the test composition. The activity was measured in terms of immobility time of the test animals subjected to forced swim test.
Procedure: Male Swiss albino mice weighing 25-30 g were treated with antagonist of 5-HT1A receptor (NAN-190) at 1 mg/kg (p.o.) followed by administration of test composition at either 10 mg/kg (p.o.) or 30 mg/kg (p.o.). One hour after treatment, the animals were subjected to forced swim test and the immobility time was measured. A cut-off time of 360 sec was used.

Compound | Response latency in tail flick ([1]; 0 min after treatment, 20 seconds cut off) | Response latency in tail flick ([1]; 30 min after treatment) | Response latency in tail flick ([1]; 60 min after treatment) | Response latency in tail flick ([1]; 90 min after treatment) | Response latency in tail flick ([1]; 120 min after treatment) | Response latency in tail flick ([1]; 180 min after treatment) | Response latency in tail flick ([1]; 240 min after treatment) | Immobility Time (5-HT1A receptor) [s] | % Reduction in Immobility Time (5-HT1A receptor; vs Normal Control) [%]
CC(C)=CCN1CCC2(C)c3cc(O)ccc3CC1C2C (stereo not drawn) [Pentazocine] | 8.42 ± 0.22 | 15.27 ± 0.26 | 15.23 ± 0.17 | 15.78 ± 0.24 | 15.50 ± 0.48 | 15.18 ± 0.45 | 15.03 ± 0.28 | – | –
COc1ccccc1N1CCN(CCCCN2C(=O)c3ccccc3C2=O)CC1 [NAN-190] | – | – | – | – | – | – | – | 232.0 ± 1.63 | −8.26
